Values joined by “and” are separate entries in the source; they are usually repeats but may differ in a detail not shown here. Equal entries are not always repeated. Some results are limits rather than exact numbers.

One may read the viability, T/C as the ratio of treated to control. What is called IC50 is the concentration needed to halve the response being measured.

The subject of the test is 743489-274-T-PDC complex spheroid viability. Briefly: Anticancer human tumor 743489-274-T-PDC patient-derived renal cell carcinoma cell line growth inhibition. The note with it: for viability, T/C: stronger effect = lower value; for IC50: curve of compound. The source says:
Multicellular complex tumor spheroid response to LSD1 Inhibitor Iadademstat in combination with a variety of drugs and investigational agents in selected tumor cell lines
The current study was undertaken to assess response to LSD1 inhibitors in combination with standard-of-care drugs and investigational agents in solid tumor complex spheroid models as well as in the K-562 leukemia. Complex spheroids include a stromal component modeled by human endothelial cells (HUVEC) and fibroblasts modeled by human mesenchymal stem cells (MSCs). The concentration ranges selected for each drug and investigational agent were based upon clinically achievable concentrations if the clinical Cmax of the agent was known.
Compounds. The drugs and investigational agents used in this study are listed on Table 1. All of the agents used, including staurosporine (NSC755774) and gemcitabine (NSC613327), were obtained from the Developmental Therapeutics Program, NCI. FDA-approved anticancer drugs are available from the NCI at http://dtp.nci.nih.gov/branches/dscb/oncology_drugset_explanation.html. Drugs and investigational agents were >95% pure by proton nuclear magnetic resonance (NMR) and liquid chromatography/mass spectrometry (LC/MS). Stock solutions were prepared at 400x in DMSO, stored at -70 degrees C, and diluted in fresh medium prior to their use. The final concentration of DMSO in cell culture wells never exceeded 0.25% (v/v). The FDA-approved anticancer drug set is available from the Developmental Therapeutics Program at https://dtp.cancer.gov/organization/dscb/obtaining/available_plates.htm. All drugs and investigational agents were tested over a range starting from a high concentration at or near the clinical Cmax and decreasing in half-log increments. If the clinical Cmax for an agent had not been determined, the highest concentration tested was 10 microM.
Cell Lines. The patient-derived cancer cell (PDC) lines: 292921-168-R-J2-PDC, K24384-001-R-PDC, and 521955-158-R2-J5-PDC pancreatic carcinomas, 556581-035-R-J1 ovarian carcinoma, 324938-238-R-J1-PDC, 855422-203-R-J1-PDC and 883617-216-R-J1-PDC urothelial bladder carcinomas, 743489-274-T-PDC renal cell carcinoma, 138582-R-J1 Merkel cell tumor, K60290-347-R-J1 and K57222-313-R-J1-PDC glioblastomas, 653999-131-R-J2-PDC, LG0703-F948-PDC, and 349418-098-R-PDC non-small cell lung carcinomas, 885512-296-R-J2-PDC, 171881-019-R-J1-PDC breast carcinomas and 186277-243-T-J2-PDC and 233499-124-R-J2-PDC colon carcinomas were obtained from the NCI Patient-Derived Models Repository (PDMR, https://pdmr.cancer.gov). The established cell lines NCI/ADR-RES (RRID:CVCL_14520 and OVCAR-5 (RRID:CVCL_1628) ovarian carcinomas, 786-O (RRID:CVCL_1051) and A498 (RRID:CVCL_A498) renal cell carcinoma, NCI-H211 (ATCC, cat. CRL-5824; RRID:CVCL_1529), NCI-H196 (ATCC, cat. CRL-5823, RRID:CVCL_1509), SW 1271 (ATCC, cat. CRL-2177, RRID:CVCL_1716) and NCI-H1876 (ATCC, cat. CRL-5902, RRID:CVCL_1503) small cell lung carcinomas, MDA-MB-231 (RRID:CVCL_0062) and MDA-MB-468 (RRID:CVCL_0419)breast carcinomas (10-12). Pooled donor human umbilical vein endothelial cells (HUVEC, Lonza, cat. CC-2519) and human mesenchymal stem cells (hMSC, Lonza, cat. PT-2501) were purchased from Lonza (Walkersville, MD).
Cell Culture. All cells were maintained in an incubator at 37 degrees C and 5% CO2 with 95% humidity. The PDC lines were cultured according to standard operating procedures established by the NCI PDMR (https://pdmr.cancer.gov). Briefly all PDCs were thawed and cultured in Matrigel-coated flasks prepared with a working solution of 1X Ham's F-12 nutrient mix, without supplementation (Invitrogen, Waltham, MA, cat. 11765054), 100 U/mL penicillin-streptomycin (Invitrogen, cat. 15140122), and 2.5% Matrigel (Corning Inc., Corning, NY, cat. 354248) for the first three passages. […]
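Note: spheroids exposed to compounds for 7 days before readout.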

In the case of `CC(C)CC(NC(=O)C(Cc1ccccc1)NC(=O)c1cnccn1)B(O)O` (stereo not drawn), the half-inhibitory concentration (IC50) was 7.31 nM and 8.09 nM. In addition, for the setting “compound 0.000316 µM”, the viability, T/C is 102% and 104%. Further, the viability, T/C (compound 0.001 µM) is 93.9% and 105%. Also, under “compound 0.00316 µM”, the viability, T/C is 106% and 94.2%. For the same compound, the viability, T/C (compound 0.01 µM) was 31% and 40%. Also, the viability, T/C (compound 0.0316 µM) was 26.9% and 31.4%. The viability, T/C (compound 0.1 µM) was 24.4% and 27.6%.

In the case of `CC(C)CC(NC(=O)CNC(=O)c1cc(Cl)ccc1Cl)B1OC(=O)CC(CC(=O)O)(C(=O)O)O1` (stereo not drawn), the IC50 was > 100 nM and 84.7 nM. Moreover, where the note is “compound 0.000316 µM”, the viability, T/C was 97.9% and 109%. For the same compound, the viability, T/C (compound 0.001 µM) is 89.1% and 112%. Moreover, the viability, T/C (compound 0.00316 µM) was 99.5% and 94.1%. For the same compound, the viability, T/C (compound 0.01 µM) is 84.9% and 83.3%. For the same compound, the viability, T/C (compound 0.0316 µM) is 84% and 76.2%. Also, the viability, T/C (compound 0.1 µM) is 58.8% and 44.4%.

On to `CC1(C)CCC(CN2CCN(c3ccc(C(=O)NS(=O)(=O)c4ccc(NCC5CCOCC5)c([N+](=O)[O-])c4)c(Oc4cnc5[nH]ccc5c4)c3)CC2)=C(c2ccc(Cl)cc2)C1`, for which the IC50 was more than 10000 nM. For the same compound, under “compound 0.0316 µM”, the viability, T/C is 90.8% and 100%. Besides, the viability, T/C (compound 0.1 µM) came to 108%. The viability, T/C (compound 0.316 µM) is 104% and 109%. Moreover, the viability, T/C (compound 1 µM) was 113% and 111%. Besides, the viability, T/C (compound 3.16 µM) was 128% and 106%. Where the note is “compound 10 µM”, the viability, T/C was 120% and 122%.

For `CC1COCCN1c1cc(-c2ccnn2C)c2ccnc(-c3ccn[nH]3)c2n1` (stereo not drawn), the IC50 was more than 1000 nM. For the setting “compound 0.00316 µM”, the viability, T/C is 102% and 81.5%. Also, for the setting “compound 0.01 µM”, the viability, T/C was 107%. For the same compound, the viability, T/C (compound 0.0316 µM) was 78.8% and 87.5%. Moreover, the viability, T/C (compound 0.1 µM) is 70.9% and 71.9%. Also, the viability, T/C (compound 0.316 µM) was 71.5% and 56.4%. For the same compound, for the setting “compound 1 µM”, the viability, T/C is 64.2% and 53.2%.

For the compound `CCN(c1cc(-c2ccc(CN3CCOCC3)cc2)cc(C(=O)NCc2c(C)cc(C)[nH]c2=O)c1C)C1CCOCC1`, the IC50 is more than 3000 nM. Further, the viability, T/C (compound 0.00949 µM) was 106% and 107%. The viability, T/C (compound 0.03 µM) is 94.5% and 105%. Besides, for the setting “compound 0.0949 µM”, the viability, T/C is 87.8% and 92.8%. Where the note is “compound 0.3 µM”, the viability, T/C was 97.2% and 111%. Where the note is “compound 0.949 µM”, the viability, T/C is 98.5% and 105%. Further, for the setting “compound 3 µM”, the viability, T/C is 95.9% and 105%.

For the compound `CC[C@@]1(O)C(=O)OCc2c1cc1n(c2=O)Cc2cc3c(CN(C)C)c(O)ccc3nc2-1`, the IC50 was more than 100 nM. Further, the viability, T/C (compound 0.000316 µM) is 103% and 92.9%. For the same compound, the viability, T/C (compound 0.001 µM) was 104% and 83.4%. In addition, the viability, T/C (compound 0.00316 µM) is 96.5% and 72.1%. Also, the viability, T/C (compound 0.01 µM) was 86.4% and 76.7%. For the same compound, the viability, T/C (compound 0.0316 µM) was 75.1% and 60.3%. For the setting “compound 0.1 µM”, the viability, T/C is 63.7% and 57.8%.

Take `CCc1c2c(nc3ccc(O)cc13)-c1cc3c(c(=O)n1C2)COC(=O)[C@]3(O)CC`: the concentration for half-maximal inhibition (IC50) was 20.7 nM and 5.36 nM. Further, under “compound 0.000949 µM”, the viability, T/C was 88.1% and 71.3%. The viability, T/C (compound 0.003 µM) was 68% and 54.2%. Also, the viability, T/C (compound 0.00949 µM) is 61.9% and 44.5%. In addition, the viability, T/C (compound 0.03 µM) is 40.2% and 45.4%. Further, the viability, T/C (compound 0.0949 µM) was 45.4% and 44.3%. Moreover, the viability, T/C (compound 0.3 µM) was 43.2% and 39.3%.

On to `COc1cc(C2c3cc4c(cc3C(OC3OC5COC(C)OC5C(O)C3O)C3COC(=O)C23)OCO4)cc(OC)c1O` (stereo not drawn), for which the IC50 was more than 3000 nM. Also, the viability, T/C (compound 0.00949 µM) is 98.2% and 111%. In addition, for the setting “compound 0.03 µM”, the viability, T/C was 114% and 112%. The viability, T/C (compound 0.0949 µM) was 70.3% and 81.1%. Under “compound 0.3 µM”, the viability, T/C was 92.8% and 99.4%. Besides, the viability, T/C (compound 0.949 µM) is 98.9% and 88.8%. For the same compound, for the setting “compound 3 µM”, the viability, T/C is 82% and 91.5%.

As to `COc1cc(Nc2ncc3c(n2)-c2ccc(Cl)cc2C(c2c(F)cccc2OC)=NC3)ccc1C(=O)O`, the IC50 is more than 1000 nM. For the same compound, the viability, T/C (compound 0.00316 µM) is 102% and 91.3%. Besides, the viability, T/C (compound 0.01 µM) is 91.3% and 102%. Besides, the viability, T/C (compound 0.0316 µM) is 89.6% and 92%. For the same compound, the viability, T/C (compound 0.1 µM) is 92.6% and 90.8%. Where the note is “compound 0.316 µM”, the viability, T/C is 94.2% and 87.2%. For the same compound, the viability, T/C (compound 1 µM) was 91.7% and 67.7%.

The values above are taken from PubChem BioAssay AID1918942 (Molecular Pharmacology Branch, DTP, NCI, 2023).
